Molecular target: T1, Kv1.5 (Rattus norvegicus, UniProt P19024)
T1 construct: gene Kcna5; Rat Kv1.5 in pEYFP-N1 vector, expressed in HEK293 cells
Assay: whole-cell patch clamp of Kv1.[…] expressed in HEK293 cells
Type: cell-based

T1 sequence (P19024 whole entry): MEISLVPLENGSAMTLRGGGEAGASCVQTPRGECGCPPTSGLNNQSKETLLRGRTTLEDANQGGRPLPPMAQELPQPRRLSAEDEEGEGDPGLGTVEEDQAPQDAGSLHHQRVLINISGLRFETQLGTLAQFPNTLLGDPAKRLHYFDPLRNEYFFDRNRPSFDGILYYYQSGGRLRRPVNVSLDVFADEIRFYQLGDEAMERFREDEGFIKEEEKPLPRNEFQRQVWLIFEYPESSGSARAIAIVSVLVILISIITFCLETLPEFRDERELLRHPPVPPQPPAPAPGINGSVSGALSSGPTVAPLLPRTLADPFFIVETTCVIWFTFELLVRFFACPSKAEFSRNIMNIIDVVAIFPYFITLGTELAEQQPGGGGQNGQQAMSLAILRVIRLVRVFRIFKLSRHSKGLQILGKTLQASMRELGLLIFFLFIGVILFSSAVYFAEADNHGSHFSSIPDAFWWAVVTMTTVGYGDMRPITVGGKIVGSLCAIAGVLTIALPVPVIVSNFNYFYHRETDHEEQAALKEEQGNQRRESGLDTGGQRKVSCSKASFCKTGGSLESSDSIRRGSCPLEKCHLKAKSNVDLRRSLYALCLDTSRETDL

`COc1cc2c(cc1OC)C(=O)C(CC1CCN(Cc3ccccc3)CC1)C2` (stereo not shown) [donepezil] showed an IC50 of 72.5 ± 0.5 µM.

— PMC5304190, “Inhibitory effects of cholinesterase inhibitor donepezil on the Kv1.5 potassium channel” (Scientific Reports, 2017)
